Test [1] deals with T1, PTPN2 (HiBIT-PTPN2 in 293T.109 cells) (Homo sapiens, UniProt P17706).
T1 construct: expressed in transfected cells; host or cells: 293T.109 (293T WT from ATCC)
T1 sequence (P17706 1-415): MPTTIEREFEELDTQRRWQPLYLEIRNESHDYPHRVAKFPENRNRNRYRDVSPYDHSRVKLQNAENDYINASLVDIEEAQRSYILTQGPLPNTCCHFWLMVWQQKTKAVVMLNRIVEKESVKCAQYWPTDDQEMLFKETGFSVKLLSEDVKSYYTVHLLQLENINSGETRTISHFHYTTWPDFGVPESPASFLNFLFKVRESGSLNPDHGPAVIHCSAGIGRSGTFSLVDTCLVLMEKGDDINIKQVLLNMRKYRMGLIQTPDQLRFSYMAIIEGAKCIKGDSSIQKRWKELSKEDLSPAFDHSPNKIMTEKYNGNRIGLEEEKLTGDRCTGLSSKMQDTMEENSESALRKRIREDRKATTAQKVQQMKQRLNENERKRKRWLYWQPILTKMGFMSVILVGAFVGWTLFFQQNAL
Nature of the test: HiBiT Degradation 293T.109 PTPN2 (Nano-Glo HiBiT Lytic Assay). The settings on record: 24.0 hours. In kind it is cell-based. An outline of the steps:
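293T.109 cells with ectopic N-terminal HiBiT-tagged PTPN2 (5000/well) exposed to compounds for 24 h at 37 °C, 5% CO2; 11-point half-log titration from 10 μM top, duplicates. Remaining HiBiT-PTPN2 read as luminescence with Nano-Glo HiBiT lytic reagent, normalised to untreated cells (0%) and reagent-free wells.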
(HiBiT is a short tag that completes a luciferase, so light tracks the accessible tagged protein.)

Test [2] has as its target T2, PTPN2 (B16F10.4 cells) (Mus musculus, UniProt Q06180).
T2 construct: HiBiT; host or cells: B16F10.4
T2 sequence (Q06180 1-406): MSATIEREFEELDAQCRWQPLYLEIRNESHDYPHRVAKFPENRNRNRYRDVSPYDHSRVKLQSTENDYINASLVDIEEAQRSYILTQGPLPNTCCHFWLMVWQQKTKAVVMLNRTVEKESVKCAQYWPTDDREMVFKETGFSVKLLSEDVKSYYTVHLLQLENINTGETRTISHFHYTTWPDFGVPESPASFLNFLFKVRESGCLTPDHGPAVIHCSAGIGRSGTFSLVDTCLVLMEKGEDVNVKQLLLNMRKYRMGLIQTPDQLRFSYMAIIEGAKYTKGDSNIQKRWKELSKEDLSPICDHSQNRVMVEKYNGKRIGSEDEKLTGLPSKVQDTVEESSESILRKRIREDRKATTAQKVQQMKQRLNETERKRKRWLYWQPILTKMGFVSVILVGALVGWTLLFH
Kind of test: HiBiT Degradation B16F10.4 PTPN2. The format is cell-based. The settings on record: 24.0 hours.

Broadly, the DC50 is the concentration at which degradation of the target reaches its halfway point. High values mean a less potent degrader, low ones a more potent degrader. As to `CC1(C)C[C@@H](Nc2cccc(-c3sc(C(=O)O)c(OCC(=O)O)c3Cl)c2)CCN1S(=O)(=O)Cc1cccc(NC(=O)N2CCC(Oc3cccc4c3CN(C3CCC(=O)NC3=O)C4=O)CC2)c1` (some centres unmarked) [Example 72], the DC50 in test [1] and in test [2] was 50 to 200 nM throughout.

Turning to `CC1(C)C[C@@H](Nc2cccc(-c3sc(C(=O)O)c(OCC(=O)O)c3Cl)c2)CCN1S(=O)(=O)Cc1cccc(NC(=O)NCCC2CCN(c3ccc4c5c(cccc35)C(=O)N4C3CCC(=O)NC3=O)CC2)c1` (stereo partly drawn) [Example 219, 3-(carboxymethoxy)-4-chloro-5-(3-(((4S)-1-((3-(3-(2-(1-(1-(2,6-dioxopiperidin-3-yl)-2-oxo-1,2-dihydrobenzo[cd]indol-6-yl)piperidin-4-yl)ethyl)ureido)benzyl)sulfonyl)-2,2-dimethylpiperidin-4-yl)amino)phenyl)thiophene-2-carboxylic acid], the DC50 in test [1] is 50 to 200 nM; in test [2], less than 50 nM.

In the case of `CC1(C)C[C@@H](Nc2cccc(-c3sc(C(=O)O)c(OCC(=O)O)c3Cl)c2)CCN1S(=O)(=O)Cc1cccc(NC(=O)OC2CN(C(=O)CNc3cccc4c3CN(C3CCC(=O)NC3=O)C4=O)C2)c1` (stereo partly drawn) [Example 96, 3-(carboxymethoxy)-4-chloro-5-[3-[[(4S)-1-[[3-[[1-[2-[[2-(2,6-dioxo-3-piperidyl)-1-oxo-isoindolin-4-yl]amino]acetyl]azetidin-3-yl]oxycarbonylamino]phenyl]methylsulfonyl]-2,2-dimethyl-4-piperidyl]amino]phenyl]thiophene-2-carboxylic acid], the DC50 in test [1] fell in the range of 50 to 200 nM; in test [2], 200 to 1000 nM.

As for `CC(C)n1c(=O)n(C2CCC(=O)NC2=O)c2ccc(C3CCN(C(=O)Nc4cccc(CS(=O)(=O)N5CC[C@H](Nc6cccc(-c7sc(C(=O)O)c(OCC(=O)O)c7Cl)c6)CC5(C)C)c4)CC3)cc21` (some centres unmarked) [Example 137], the 50% degradation concentration (DC50) in test [1] and in test [2] was 50 to 200 nM in each case.

Regarding `Cn1c(=O)n(C2CCC(=O)NC2=O)c2ccc(C3CCN(C(=O)Nc4cccc(CS(=O)(=O)N5CC[C@H](Nc6cccc(-c7sc(C(=O)O)c(OCC(=O)O)c7Cl)c6)CC5(C)C)c4)CC3)c(Cl)c21` (stereo partly drawn) [Example 207, 3-(carboxymethoxy)-4-chloro-5-[3-[[(4S)-1-[[3-[[4-[4-chloro-1-(2,6-dioxo-3-piperidyl)-3-methyl-2-oxo-benzimidazol-5-yl]piperidine-1-carbonyl]amino]phenyl]methylsulfonyl]-2,2-dimethyl-4-piperidyl]amino]phenyl]thiophene-2-carboxylic acid], the half-maximal degradation concentration (DC50) in test [1] and in test [2] was 50 to 200 nM throughout.

For the compound `CC1(C)C[C@@H](Nc2cccc(-c3sc(C(=O)O)c(OCC(=O)O)c3Cl)c2)CCN1S(=O)(=O)Cc1cccc(NC(=O)C2CCN(C(=O)COc3cccc4c3C(=O)N(C3CCC(=O)NC3=O)C4=O)CC2)c1` (stereo partly drawn) [Example 58, 3-(carboxymethoxy)-4-chloro-5-[3-[[(4S)-1-[3-[[1-[2-[[2-(2,6-dioxo-3-piperidyl)-1,3-dioxo-isoindolin-4-yl]oxyacetyl]piperidine-4-carbonyl]amino]phenyl]methylsulfonyl]-2,2-dimethyl-4-piperidyl]amino]phenyl]thiophene-2-carboxylic acid], the DC50 in test [1] was 200 to 1000 nM; in test [2] it was no less than 1000 nM.

On to `Cn1c(=O)n(C2CCC(=O)NC2=O)c2ccc(C3CCN(C(=O)Nc4cc(CS(=O)(=O)N5CCC(Nc6cccc(-c7sc(C(=O)O)c(OCC(=O)O)c7Cl)c6)CC5)ccc4F)CC3)cc21` (centres unmarked) [Example 104, 3-(carboxymethoxy)-4-chloro-5-[3-[[1-[[3-[[4-[1-(2,6-dioxo-3-piperidyl)-3-methyl-2-oxo-benzimidazol-5-yl]piperidine-1-carbonyl]amino]-4-fluoro-phenyl]methylsulfonyl]-4-piperidyl]amino]phenyl]thiophene-2-carboxylic acid], for which the figures for the DC50 in test [1] and in test [2] were 50 to 200 nM and less than 50 nM, respectively.

Turning to `CC1(C)C[C@@H](Nc2cccc(-c3sc(C(=O)O)c(OCC(=O)O)c3Cl)c2)CCN1S(=O)(=O)Cc1cccc(NC(=O)N2CCC(c3ccc4c5c(cccc35)C(=O)N4C3CCC(=O)NC3=O)CC2)c1` (stereo partly drawn) [Example 82, 3-(carboxymethoxy)-4-chloro-5-[3-[[(4S)-1-[[3-[[4-[1-(2,6-dioxo-3-piperidyl)-2-oxo-benzo[cd]indol-6-yl]piperidine-1-carbonyl]amino]phenyl]methylsulfonyl]-2,2-dimethyl-4-piperidyl]amino]phenyl]thiophene-2-carboxylic acid], the 50% degradation concentration (DC50) in test [1] and in test [2] was less than 50 nM in each case.

For the compound `CC1(C)C[C@@H](Nc2cccc(-c3sc(C(=O)O)c(OCC(=O)O)c3Cl)c2)CCN1S(=O)(=O)Cc1cccc(NC(=O)[C@H]2CC[C@H](c3ccc4c5c(cccc53)C(=O)N4C3CCC(=O)NC3=O)CC2)c1` (stereo partly drawn) [Example 165, 3-(carboxymethoxy)-4-chloro-5-(3-(((4S)-1-((3-((1r,4S)-4-(1-(2,6-dioxopiperidin-3-yl)-2-oxo-1,2-dihydrobenzo[cd]indol-6-yl)cyclohexane-1-carboxamido)benzyl)sulfonyl)-2,2-dimethylpiperidin-4-yl)amino)phenyl)thiophene-2-carboxylic acid], the 50% degradation concentration (DC50) in test [1] and in test [2] was less than 50 nM throughout.

As to `Cn1c(=O)n(C2CCC(=O)NC2=O)c2ccc(N3CC(OC(=O)Nc4cccc(CS(=O)(=O)N5CC[C@H](Nc6cccc(-c7sc(C(=O)O)c(OCC(=O)O)c7Cl)c6)CC5(C)C)c4)C3)cc21` (some centres unmarked) [Example 136], the DC50 is 200 to 1000 nM in test [1] and no less than 1000 nM in test [2].

As for `Cn1c(=O)n(C2CCC(=O)NC2=O)c2ccc(C3CCN(C(=O)Nc4cccc(CS(=O)(=O)N5CCC(Oc6cccc(-c7sc(C(=O)O)c(OCC(=O)O)c7Cl)c6)CC5)c4)CC3)cc21` (centres unmarked) [Example 103, 3-(Carboxymethoxy)-4-chloro-5-[3-[[1-[[3-[[4-[1-(2,6-dioxo-3-piperidyl)-3-methyl-2-oxo-benzimidazol-S-yl]piperidine-1-carbonyl]amino]phenyl]methylsulfonyl]-4-piperidyl]oxy]phenyl]thiophene-2-carboxylic acid], the figures for the DC50 in test [1] and in test [2] were 200 to 1000 nM and 50 to 200 nM, respectively.

For the compound `CC1(C)C[C@@H](Nc2cccc(-c3sc(C(=O)O)c(OCC(=O)O)c3Cl)c2)CCN1S(=O)(=O)Cc1cccc(NC(=O)[C@H]2CC[C@@H](c3ccc4c5c(cccc53)C(=O)N4C3CCC(=O)NC3=O)CC2)c1` (stereo partly drawn) [Example 166, 3-(carboxymethoxy)-4-chloro-5-(3-(((4S)-1-((3-((1s,4R)-4-(1-(2,6-dioxopiperidin-3-yl)-2-oxo-1,2-dihydrobenzo[cd]indol-6-yl)cyclohexane-1-carboxamido)benzyl)sulfonyl)-2,2-dimethylpiperidin-4-yl)amino)phenyl)thiophene-2-carboxylic acid], the DC50 in test [1] and in test [2] was 50 to 200 nM throughout.

`Cn1c(=O)n(C2CCC(=O)NC2=O)c2ccc(C3CCN(C(=O)Nc4cccc(CS(=O)(=O)N5CC[C@@H](Nc6cc(-c7sc(C(=O)O)c(OCC(=O)O)c7Cl)ccc6F)CC5(C)C)c4)CC3)cc21` (some centres unmarked) [Example 133]: the figures for the DC50 in test [1] and in test [2] were 200 to 1000 nM and 50 to 200 nM, respectively.

In the case of `CC1(C)C[C@@H](Nc2cccc(-c3sc(C(=O)O)c(OCC(=O)O)c3Cl)c2)CCN1S(=O)(=O)Cc1cccc(NC(=O)CCC(=O)NCc2ccc3c4c(cccc24)C(=O)N3C2CCC(=O)NC2=O)c1` (stereo partly drawn) [Example 220, 3-(carboxymethoxy)-4-chloro-5-(3-(((4S)-1-((3-(4-(((1-(2,6-dioxopiperidin-3-yl)-2-oxo-1,2-dihydrobenzo[cd]indol-6-yl)methyl)amino)-4-oxobutanamido)benzyl)sulfonyl)-2,2-dimethylpiperidin-4-yl)amino)phenyl)thiophene-2-carboxylic acid], the DC50 in test [1] and in test [2] was 50 to 200 nM each time.

In the case of `Cn1c(=O)n(C2CCC(=O)NC2=O)c2ccc(C3CCN(C(=O)Nc4cccc(CS(=O)(=O)N5CC[C@@H](Nc6cccc(-c7sc(C(=O)O)c(OCC(=O)O)c7Cl)c6)CC56CC6)c4)CC3)cc21` (stereo partly drawn) [Example 230, 3-(carboxymethoxy)-4-chloro-5-(3-(((7R)-4-((3-(4-(1-(2,6-dioxopiperidin-3-yl)-3-methyl-2-oxo-2,3-dihydro-1H-benzo[d]imidazol-5-yl)piperidine-1-carboxamido)benzyl)sulfonyl)-4-azaspiro[2.5]octan-7-yl)amino)phenyl)thiophene-2-carboxylic acid], the DC50 in test [1] lay within 200 to 1000 nM; in test [2] it was 50 to 200 nM.

In the case of `O=C(O)COc1c(C(=O)O)sc(-c2cccc(NC3CCN(S(=O)(=O)Cc4cccc(NC(=O)CN5CCC(c6ccc7c(c6)CN(C6CCC(=O)NC6=O)C7=O)CC5)c4)CC3)c2)c1Cl` (centres unmarked) [Example 45], the DC50 in test [1] and in test [2] was 200 to 1000 nM each time.
